Data set [1] has as its target T1, human SLC17A9 (Homo sapiens, UniProt Q9BYT1, N228S).
T1 construct: His6 (from pDEST10 vector); made in house; host or cells: insect cells, baculovirus system (Sf9 named for virus production)
T1 sequence (Q9BYT1 1-430 isoform Q9BYT1-2 N222S): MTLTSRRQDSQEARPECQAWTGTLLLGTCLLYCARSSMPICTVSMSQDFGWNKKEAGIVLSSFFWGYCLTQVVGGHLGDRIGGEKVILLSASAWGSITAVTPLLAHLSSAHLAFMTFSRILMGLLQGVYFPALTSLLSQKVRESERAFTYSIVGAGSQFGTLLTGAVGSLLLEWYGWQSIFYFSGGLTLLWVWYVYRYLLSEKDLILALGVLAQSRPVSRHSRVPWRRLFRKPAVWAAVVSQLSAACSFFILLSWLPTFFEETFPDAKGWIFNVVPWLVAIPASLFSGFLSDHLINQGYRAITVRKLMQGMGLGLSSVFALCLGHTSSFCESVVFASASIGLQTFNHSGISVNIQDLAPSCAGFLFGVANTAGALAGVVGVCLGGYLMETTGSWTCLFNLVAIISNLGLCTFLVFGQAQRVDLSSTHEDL
In words: Nucleotide transport by human SLC17A9 reconstituted proteoliposomes (valinomycin-induced membrane potential, radiolabelled substrate). Type of data set: biochemical. The settings on record: for uptake of ADP and GTP into SLC17A9 reconstituted proteoliposomes over time: 100 μM each, FIG. 16; for effect of nucleotides on ATP transport: nucleotide 1 mM, FIG. 15. As to the method: 10 μg of purified SLC17A9 and 0.5 mg of soybean-derived lipids were mixed and incubated at −80° C. for 5 minutes or more. The mixture was thawed quickly by holding the tube in the hands, and was diluted 60-fold with a buffer solution containing 20 mM MOPS-Tris (pH 7.0), 0.15M sodium acetate, 2 mM magnesium acetate and 0.5 mM DTT. This dilution was centrifuged at 200,000×g at 4° C. for one hour, the supernatant was discarded, and the precipitate was resuspended in a buffer solution containing 20 mM MOPS-Tris (pH 7.0), 0.15M sodium acetate, 2 mM magnesium acetate and 0.5 mM DTT, to obtain SLC17A9 reconstituted proteoliposomes. As a control, liposomes without SLC17A9 were used.
The nucleotide transport activity was measured by the following procedure. The reconstituted proteoliposomes were incubated in a buffer solution containing 20 mM MOPS-Tris (pH 7.0), 0.15M potassium acetate, 2 mM magnesium acetate and 4 mM potassium chloride, at 27° C. for 2 minutes, and valinomycin was added thereto to a final concentration of 2 μM. The mixture was incubated for further 2 minutes. The point of addition of 0.1 mM [α-^32P]ATP (3.7 GBq/mmol) was defined as the initiation of activity measurement. At a predetermined time point, 130 μL of the reaction liquid was recovered and centrifuged through a Sephadex G-50 (fine) spin column at 760×g for 2 minutes. The uptake of ATP was measured by measuring the radioactivity included in the reaction liquid that had passed through the column using a liquid scintillation counter. In the measurement of the transport activity for ADP and GTP, [2,8-^3H]ADP (0.37 GBq/mmol) and [α-^32P]GTP (3.7 GBq/mmol) were used instead of ATP as the substrate.
In an experiment for an inhibitor, a predetermined concentration of an inhibitor was added upon incubation of the proteoliposomes.

Data set [2] deals with T2, mouse SLC17A9 (mSLC17A9) (Mus musculus, UniProt Q8VCL5).
T2 construct: His6 (from pDEST10 vector) (N); made in house; host or cells: insect cells, baculovirus system (Sf9 named for virus production)
T2 sequence (Q8VCL5 1-447): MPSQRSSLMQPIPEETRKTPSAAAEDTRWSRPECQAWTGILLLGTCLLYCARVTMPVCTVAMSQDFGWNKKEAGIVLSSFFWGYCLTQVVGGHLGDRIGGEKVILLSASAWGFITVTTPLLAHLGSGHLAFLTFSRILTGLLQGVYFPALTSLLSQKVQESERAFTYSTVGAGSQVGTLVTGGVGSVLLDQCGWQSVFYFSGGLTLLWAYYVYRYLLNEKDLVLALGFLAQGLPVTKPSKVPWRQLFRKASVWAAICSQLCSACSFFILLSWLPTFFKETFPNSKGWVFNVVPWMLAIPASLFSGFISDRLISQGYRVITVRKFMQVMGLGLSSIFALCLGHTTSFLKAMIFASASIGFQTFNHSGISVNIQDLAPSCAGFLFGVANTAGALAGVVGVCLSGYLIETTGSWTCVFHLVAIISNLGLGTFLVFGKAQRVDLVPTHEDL
In words: ATP transport by reconstituted mSLC17A9 protein proteoliposomes. Type of data set: biochemical. The settings on record: added at 2 mM, uptake for 2 minutes, FIG. 22. On the procedure:
20 μg of the purified mSLC17A9 protein and 0.5 mg of soybean-derived lipids were mixed, and the mixture was incubated at −80° C. for 5 minutes or longer. This mixture was thawed quickly by holding the tube in the hands, and was diluted 30-fold with a buffer solution containing 20 mM MOPS-Tris (pH 7.0), 0.15M sodium acetate, 2 mM magnesium acetate and 0.5 mM DTT. This dilution was centrifuged at 200,000×g at 4° C. for one hour, the supernatant was discarded, and the precipitate was resuspended in a buffer solution containing 20 mM MOPS-Tris (pH 7.0), 0.15M sodium acetate, 2 mM magnesium acetate and 0.5 mM DTT, to achieve reconstitution. […] The mixture was further incubated for 2 minutes. […] Furthermore, in an inhibitor test, an inhibitor at a predetermined concentration was added in the case of incubating the proteoliposomes.

Data set [3] concerns SLC17A9 mRNA. Kind of data set: Knockdown of SLC17A9 by RNAi, SLC17A9 mRNA by real-time PCR. The following applies: 25 nM rat SLC17A9 siRNA, cultured 3 days, versus control siRNA, FIG. 19(A). Type of data set: cell-based. On the procedure: (§1) Knockdown of SLC17A9 by RNAi was carried out as follows. A sequence for RNAi designed by Qiagen HP OnGuard siRNA Design was used. The nucleic acid sequence of the RNAi used was […] (SEQ ID NO: 15). This sequence and HiPerFect transfection reagent (Qiagen) were used for transfection of 25 nM AllStars negative control siRNA or 25 nM rat SLC17A9 siRNA, and the resultant was cultured for 3 days, to thereby perform knockdown of SLC17A9. […] The amounts of SCL17A9 mRNA in the knocked-down cells (RNAi) and control cells (control) were measured by real-time PCR, and as shown in FIG. 19(A), the amount of SLC17A9 mRNA was decreased by RNAi.

For data set [4], the system named is PC12 cells. In words: KCl-dependent ATP release after SLC17A9 knockdown. Type of data set: cell-based, rat. The following applies: 25 nM siRNA, 3 days, KCl stimulus 30 minutes, FIG. 19(B). On the procedure:
as §1

Substrate in data set [5]: Nc1ncnc2c1ncn2[C@@H]1O[C@H](COP(=O)(O)OP(=O)(O)OP(=O)(O)O)[C@@H](O)[C@H]1O
Kind of data set: cells, lysate or membranes named. The settings on record: other: human SLC17A9 proteoliposomes, ATP uptake at various concentrations; pH 7.0; 27.0 °C.

Substrate in data set [6]: Nc1ncnc2c1ncn2[C@@H]1O[C@H](COP(=O)(O)OP(=O)(O)OP(=O)(O)O)[C@@H](O)[C@H]1O
Kind of data set: purified protein, by the assay type. The settings on record: other: reconstituted mSLC17A9, membrane potential-dependent transport, calculated using KaleidaGraph; pH 7.0; 27.0 °C.

Regarding `Nc1ncnc2c1ncn2[C@@H]1O[C@H](COP(=O)(O)OP(=O)(O)O)[C@@H](O)[C@H]1O` [ADP, adenosine diphosphate], in data set [1], the “uptake of ADP and GTP into SLC17A9 reconstituted proteoliposomes over time” value is given as “actually taken up”; the “effect of nucleotides on ATP transport” value is listed as “recognized as transport substrates”. For the same molecule, the “inhibition of radioactive ATP uptake” value in data set [2] is “compete with ATP”.

With `Nc1nc2c(ncn2[C@@H]2O[C@H](COP(=O)(O)OP(=O)(O)OP(=O)(O)O)[C@@H](O)[C@H]2O)c(=O)[nH]1` [GTP], in data set [1], the “uptake of ADP and GTP into SLC17A9 reconstituted proteoliposomes over time” value was “actually taken up”; the “effect of nucleotides on ATP transport” value was “recognized as transport substrates”. Also, in data set [2], the “inhibition of radioactive ATP uptake” value is on record as “compete with ATP”.

As to “SLC17A9 RNAi: RNAi of sequence UAUUCGAGAGAAUGUCACG (SEQ ID NO: 15) for knockdown of SLC17A9 (listed as RNA, chemistry not given here)”, in data set [3], the “amount of SLC17A9 mRNA” value is on record as “decreased”. In addition, in data set [4], the “KCl-dependent ATP release” value is recorded as “suppressed”.

B1: human SLC17A9 (Homo sapiens; N228S) (protein)
chain: T1 sequence (Q9BYT1 1-430 isoform Q9BYT1-2 N222S)
With B1, the Km in data set [5] worked out at 0.8 mM.

B2: mouse SLC17A9 (mSLC17A9) (Mus musculus) (protein)
chain: T2 sequence (Q8VCL5 1-447)
With B2, in data set [6], the Km was 0.23 mM and the Vmax is given as 23.8 nmol/min/mg of protein.

These data come from US7951595B2, “Methods for screening modulators of SLC17-type anion transport activity” (National University Corporation Okayama University, priority 2007, dated 2011).
